Experimental data published in patent publication US20240002470A1, “Method for separation and/or detection and/or in vitro quantification of infectious compounds in biological material” (priority 2020, published 2024).

Legend:
E. coli ATCC 11105 = assay: Capture on magnetic microbeads coated with pepβ2GPI: C3 E. coli ATCC 11105; assay type: binding
Protocol: To test the interaction of microbeads coated with β2GPI and the peptides derived from them, with bacteria present in the blood, 1 ml of blood culture is taken from each sample and placed in a 15 ml tube. 20 μl of microbeads are added and each tube is incubated at 37° C. with horizontal shaking. The tubes are then placed in a magnetic field which retains the microbeads on the wall and the supernatant is removed. The microbeads are then washed twice with sterile PBS, of the same composition as previously indicated; the microbeads are then resuspended in 150 μl of BTS culture medium. Two methods for detecting bacteria captured by microbeads were used: culture on TS agar and PCR For the detection of the bacterial capture by culture, 50 μl of the suspension of microbeads thus obtained are taken and they are spread out in a Petri dish containing TS agar. Petri dishes are incubated in an oven at 37° C. for 24 hours. The bacteria that have grown on the agar were then counted.
The tested bacteria are: C3 E. coli ATCC 11105, C5 S. aureus ATCC 6538, H61 E. coli B6054, C1: E. coli ATCC 8739, H46: C. albicans 1 and H: 60 SCN
The same protocol and primers as those described in example 9 were carried out.

[1] = system: BVDV virus (Bovine viral Diarrhea Virus); assay: Capture of BVDV virus on magnetic microbeads coated with pepβ2GPI; assay type: binding
Protocol: (§1) The pepβ2GPI were grafted onto the microbeads according to the supplier's recommendations. In summary, the microbeads are suspended in phosphate buffer at a pH of 6.0. The beads are then activated, for 15 minutes, in the presence of 1-ethyl-3-(3-Dimethylaminopropyl) carbodiimide and N-hydroxysuccinimide. After washing with HCl, 2 mM, the beads are suspended in a phosphate buffer at a pH of 7.5, containing the pepβ2GPI. The concentration of pepβ2GPI in this coupling buffer is 20 mg/L; the microbeads are incubated in the buffer with gentle and constant shaking at a temperature of 25° C. for 3 hours. The microbeads are then centrifuged at 1,500 rpm and the supernatant is removed; the centrifugation pellet is suspended in the same buffer as that used for the coupling of pepβ2GPI, which forms the suspension of microbeads coated with pepβ2GPI which we want to test.
(§2) One hundred microliters of viral culture supernatant to be studied are placed in an Eppendorf tube with 900 microliters of Tris buffer at a pH of 7.5 and 10 microliters of microbeads. The tubes are shaken horizontally to mix the microbeads well, and each tube is incubated at 37° C. or at room temperature (RT=22° C.) for 30 minutes. In each tube, the microbeads are then separated from the liquid phase by means of a magnet, placed externally against the wall of the tube, and the viral RNA is extracted. The beads are brought into contact with a viral lysis buffer, included in an RNA extraction kit: QIAamp RNA viral kit, sold by QIAGEN and the viral RNA is isolated according to the seller's recommendations.
(§3) The viruses tested are the HSV virus (Herpes Simplex virus) and the BVDV virus (Bovine viral Diarrhea Virus).
(§4) The same protocol as that described in example 1 was carried out.

[2] = system: HSV virus (Herpes Simplex virus); assay: Capture of HSV virus on magnetic microbeads coated with pepβ2GPI; assay type: binding
Protocol: as §1, §2, §3, §4

S. aureus, SA 378804 = assay: Capture of S. aureus SA 378804 on magnetic microbeads, culture and counting; assay type: binding, Staphylococcus aureus; conditions: S. aureus SA 378804 colonies from captured beads
Protocol: One ml of the culture of bacteria to be studied is placed in a hemolysis tube. 100 μl of buffer are added, the trade name of which is TTGB, then 20 μl of microbeads. The tube is stirred horizontally, to mix the microbeads well, and incubated at 37° C. or at room temperature (TA=22° C.) for half an hour. At the end of the incubation, the microbeads are separated from the liquid phase by means of a magnet, placed externally against the wall of the tube. The microbeads are then washed twice with LB medium and then resuspended in 1 ml of BTS culture medium (Tripticase-Soy broth) having the following formulation: […]
This culture medium is brought to a boil and then autoclaved, to make it sterile, before use. 20 μl of the microbead suspension are taken and spread in a Petri dish containing TS agar (Trypticase-Soya agar) having the following formulation: […]
The Petri dishes are incubated at +37° C. for 24 hours. The bacteria that have grown on the agar are then counted.
The used bacterium is a strain of Staphylococcus aureus (S. aureus), SA 378804, isolated from the wound of the foot of a diabetic person, Sotto et al., Diabetes Care (2008) 31 (12), p. 2318-24. The same experiment as that described in the previous example was carried out.

H-((SSLAFWK)2-K)2-K—NH2 [Peptide P11] was tested, and the “Capture of C3 E. coli ATCC 11105” value (E. coli ATCC 11105) was 43%, the “Capture of BVDV virus” value [1] was 266% and the “Capture of HSV virus” value [2] was 123%.

B1: β2GPI: plasma glycoprotein called β2-glycoprotein I, grafted on beads as the reference (protein, UniProt P02749 20-345, looked up)
Beta-2-glycoprotein 1: GRTCPKPDDLPFSTVVPLKTFYEPGEEITYSCKPGYVSRGGMRKFICPLTGLWPINTLKCTPRVCPFAGILENGAVRYTTFEYPNTISFSCNTGFYLNGADSAKCTEEGKWSPELPVCAPIICPPPSIPTFATLRVYKPSAGNNSLYRDTAVFECLPQHAMFGNDTITCTTHGNWTKLPECREVKCPFPSRPDNGFVNYPAKPTLYYKDKATFGCHDGYSLDGPEEIECTKLGNWSAMPSCKASCKVPVKKATVVYQGERVKIQEKFKNGMLHGDKVSFFCKNKEKKCSYTEDAQCIDGTIEVPKCFKEHSSLAFWKTDASDVKPC
modifications: grafted on beads
In the case of B1, the “% compared to β2GPI” value (S. aureus, SA 378804) is reported as 100%.
